From ChEMBL document CHEMBL1201862, “PubChem BioAssay data set” (2004)
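Results reflect a 48-hour exposure of cells in 96-well plates to compound at five concentrations. GI50 marks 50% less growth.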 Calls of active or inactive are those of the source. No stated cut-off is given here; in the data, active = GI50 up to about 1.1 µM and inactive = higher.

Key:
Experiment in all cases: DTP human tumour cell line panel, 48 h
BT-549 = test system: BT-549
SR = test system: SR
COLO 205 = test system: COLO 205
NCI-H23 = test system: NCI-H23
Hs-578T = test system: Hs-578T
HOP-92 = test system: HOP-92
HL-60 = test system: HL-60
OVCAR-5 = test system: OVCAR-5
Malme-3M = test system: Malme-3M
LOX IMVI = test system: LOX IMVI
CCRF-CEM = test system: CCRF-CEM
OVCAR-4 = test system: OVCAR-4
MDA-N = test system: MDA-N
HCC 2998 = test system: HCC 2998
MOLT-4 = test system: MOLT-4
ACHN = test system: ACHN
IGROV-1 = test system: IGROV-1
K562 = test system: K562
NCI/ADR-RES = test system: NCI/ADR-RES
SF-295 = test system: SF-295

Measured: GI50

COc1cc2c(OC)c(c1)CCCC1=CC(=O)C=C(CCC2)C1=O
inactive: BT-549 33.3 µM | SR 3.54 µM | COLO 205 21.9 µM | NCI-H23 50.2 µM | Hs-578T 30.9 µM | HOP-92 5.6 µM | HL-60 6.1 µM | OVCAR-5 > 100 µM | Malme-3M 10.4 µM | LOX IMVI 16.6 µM | CCRF-CEM 3.09 µM | OVCAR-4 17.2 µM | MDA-N 15.2 µM | HCC 2998 43.5 µM | MOLT-4 2.72 µM | ACHN 47.5 µM | IGROV-1 40.8 µM | K562 14.6 µM | NCI/ADR-RES 32 µM | SF-295 50.2 µM

N#CCCN(CCC#N)c1ccc(/C=C2\SC(=S)NC2=O)cc1Br
active: Hs-578T 0.598 µM
inactive: BT-549 37.3 µM | SR > 100 µM | COLO 205 > 100 µM | NCI-H23 > 100 µM | HOP-92 50.5 µM | HL-60 79.8 µM | OVCAR-5 > 100 µM | Malme-3M 16.9 µM | LOX IMVI 23.1 µM | CCRF-CEM > 100 µM | OVCAR-4 85.1 µM | MDA-N > 100 µM | HCC 2998 > 100 µM | MOLT-4 > 100 µM | ACHN 67.9 µM | IGROV-1 72.1 µM | K562 > 100 µM | NCI/ADR-RES > 100 µM | SF-295 27.9 µM

COC(=O)C1([C@@H]2C[C@@H](O)[C@]3(C)CC/C=C(\C)CCC[C@H](C)[C@H](O)[C@@H]2O3)CC1
inactive: BT-549 53.7 µM | SR 39.4 µM | COLO 205 57 µM | NCI-H23 50.4 µM | Hs-578T 63.2 µM | HOP-92 96.4 µM | HL-60 > 100 µM | OVCAR-5 80.5 µM | Malme-3M > 100 µM | LOX IMVI 61.4 µM | CCRF-CEM > 100 µM | OVCAR-4 45.9 µM | MDA-N 72.3 µM | HCC 2998 63.1 µM | MOLT-4 26.5 µM | ACHN 24.8 µM | IGROV-1 37.3 µM | K562 34.8 µM | NCI/ADR-RES 39.4 µM | SF-295 43.1 µM

O=[N+]([O-])c1ccc(N/N=C/c2ccc(OCCCCCCCCCCCO)cc2)c([N+](=O)[O-])c1
inactive: BT-549 5.94 µM | SR 2.5 µM | COLO 205 2.01 µM | NCI-H23 14.4 µM | Hs-578T 1.32 µM | HOP-92 4.82 µM | HL-60 5.56 µM | OVCAR-5 14.8 µM | Malme-3M 1.72 µM | LOX IMVI 7.64 µM | CCRF-CEM 3.91 µM | OVCAR-4 4.13 µM | MDA-N 3.58 µM | HCC 2998 4.78 µM | MOLT-4 29.3 µM | ACHN 9.2 µM | IGROV-1 6.05 µM | K562 1.15 µM | NCI/ADR-RES 2.73 µM | SF-295 3.24 µM

O=C1Cc2c([nH]c3ccc(C(=O)O)cc23)-c2ccccc2N1
inactive: BT-549 > 100 µM | SR > 100 µM | COLO 205 > 100 µM | NCI-H23 > 100 µM | Hs-578T > 100 µM | HOP-92 > 100 µM | HL-60 37.5 µM | OVCAR-5 6.79 µM | Malme-3M > 100 µM | LOX IMVI > 100 µM | CCRF-CEM > 100 µM | OVCAR-4 > 100 µM | MDA-N > 100 µM | HCC 2998 > 100 µM | MOLT-4 > 100 µM | ACHN > 100 µM | IGROV-1 > 100 µM | K562 > 100 µM | NCI/ADR-RES > 100 µM | SF-295 > 100 µM
